Reference: patent publication US9814787B2, “Luciferin amides” (University of Massachusetts, priority 2013, dated 2017)

Tests used:
[1] = target: T1, FAAH (Mus musculus, UniProt O08914); assay: In vivo FAAH inhibition assay with PF-3845; parameters: species or system mice
T1 construct: metabolized into CycLuc1 by endogenous FAAH activity; from tissue; host or cells: brain (striatum) of live FVB mice expressing AAV9-delivered luciferase
T1 sequence (O08914 1-579): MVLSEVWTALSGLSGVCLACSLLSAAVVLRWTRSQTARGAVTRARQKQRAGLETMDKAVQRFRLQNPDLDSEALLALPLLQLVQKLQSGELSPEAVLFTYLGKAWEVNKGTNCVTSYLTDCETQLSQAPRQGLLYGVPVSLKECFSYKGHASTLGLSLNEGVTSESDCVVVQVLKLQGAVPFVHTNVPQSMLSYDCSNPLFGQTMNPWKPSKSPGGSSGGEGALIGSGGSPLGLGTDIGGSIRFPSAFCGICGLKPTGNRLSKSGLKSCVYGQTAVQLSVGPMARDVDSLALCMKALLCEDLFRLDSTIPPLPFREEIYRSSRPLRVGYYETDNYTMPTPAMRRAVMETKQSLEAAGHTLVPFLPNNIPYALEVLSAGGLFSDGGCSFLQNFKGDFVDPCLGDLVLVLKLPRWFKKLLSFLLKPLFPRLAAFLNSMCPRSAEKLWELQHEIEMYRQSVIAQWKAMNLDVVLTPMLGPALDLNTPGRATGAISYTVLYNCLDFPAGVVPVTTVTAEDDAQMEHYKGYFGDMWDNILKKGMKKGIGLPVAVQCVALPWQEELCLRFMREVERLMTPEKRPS
Method: (§1) FVB mice were injected with AAV9-luc+ in the brain striatum. Bioluminescence assays were performed approximately nine months after AAV injection. Each luciferin amide was diluted into PBS to the indicated concentration from a 50 mM DMSO stock solution and filtered (0.22 μm) prior to intraperitoneally injection (0.1 mL per mouse). Mice were anesthetized with isoflurane (2% in 1 L/min oxygen) and images acquired on a Xenogen IVIS 100 imaging system and analyzed with Living Image software.
Mice were injected intraperitoneally with 1 mg/mL of a specific FAAH inhibitor PF-3845 dissolved in 18:1:1 PBS:ethanol:emulphor (0.1 mL), or with an equal volume of 18:1:1 PBS:ethanol:emulphor control vehicle. Thirty minutes after injection, the mice were imaged as described above.
FAAH is highly expressed in most tissues, particularly in the brain. To determine whether the luciferin amides are cleaved exclusively by FAAH in the brain tissue, eight FVB mice expressing AAV9-luciferase in the striatum were divided into two groups: (1) four mice were injected IP with 1 mg/mL of a specific FAAH inhibitor PF-3845 dissolved in 18:1:1 PBS:ethanol:emulphor (0.1 mL), and (2) four mice were treated with an equal volume of 18:1:1 PBS:ethanol:emulphor control vehicle without PF-3845. After 30 minutes, one mouse from each group was IP injected with 5 mM CycLuc1 (i.e., Compound 9's corresponding luciferin) in PBS (0.1 mL), and three were injected with 0.1 mM Compound 5 in 0.2% DMSO/PBS (0.1 mL). The mice were imaged 10 minutes after substrate injection. Mice in the right panel were group (1) (i.e., treated with a FAAH inhibitor) and mice in the left panel were from group (2) (i.e., without being treated with a FAAH inhibitor).

[2] = tested on: FVB mice expressing luciferase in brain tissue; assay: In vivo bioluminescence imaging in brains of FVB mice injected with AAV9-luc+ in the striatum; details: for light emission in brains of live mice (qualitative): mouse, in vivo
Method: as §1
Certain luciferin amides described herein were tested to determine whether they would image well in live mice. For these studies, FVB mice were injected with adeno-associated virus 9 (AAV9)-luciferase constructs into the brain striatum.
Bioluminescence imaging (BLI) in the brain is more challenging than imaging in the rest of the organism, in part because a luciferase substrate (i.e., a luciferin) must cross the blood-brain barrier. Therefore, the ability of a synthetic luciferin (i.e., Compound 9's corresponding luciferin (CycLuc1)) to allow bioluminescence imaging in these mice, as compared to the native firefly luciferase substrate (i.e., D-luciferin) was first tested. Specifically, each substrate was injected intraperitoneally (IP) in PBS at a volume of 0.1 mL, D-luciferin being at a concentration of 100 mM and CycLuc1 being at a concentration of 5 mM. […] CycLuc1 was then injected at a 320-fold lower dose (0.06 mL of 0.5 mM) than D-luciferin.
Specifically, Compound 9 (i.e., CycLuc1 amide) was injected at 0.5 mM in 0.5% DMSO/PBS (0.06 mL).
In this figure, mice in the top row were treated with luciferin amides in the amounts indicated in the figure, and the mice in the bottom row were the same mice that were imaged one day later using a standard dose of D-luciferin.

[3] = tested on: live CHO cells expressing R218K luciferase; assay: Intact cell FAAH assay, light emission from live CHO cells expressing R218K luciferase; assay type: cell-based, Chinese hamster; details: 50 μM FAAH inhibitor
Method: Chinese hamster ovary-K1 (CHO-K1) cells were grown in a CO2 incubator at 37° C. with 5% CO2 and were cultured in F-12K Nutrient Mixture (GIBCO) supplemented with 10% fetal bovine serum and 100 U/mL penicillin/streptomycin.
Wild-type and R218K mutant luciferases were cloned into the BamHI-NotI site of pCDNA 3.1 and transiently transfected into CHO-K1 cells with Lipofectamine 2000 in 96-well tissue culture-treated plates for intact cell assays, or 6-well plates for lysed cell assays. For intact cells, 0.075 μg plasmid/well was transfected; for lysed cells, 2.25 μg plasmid/well was transfected.
[…] The cells were incubated for one hour in the CO2 incubator at 37° C. Cells were then washed with Hank's balanced salt solution (HBSS) and overlaid with 60 μL a luciferin amide substrate in HBSS. Imaging assays were performed 3 minutes after substrate addition, with final substrate concentrations ranging from 0.122 to 250 μM.
Seven luciferin amides, i.e., Compounds 1-4, 9, 10, and 25, were tested in live CHO cells expressing R218K luciferase at various concentrations (i.e., 0.12 μM, 0.25 μM, 0.5 μM, 1 μM, 2 μM, 4 μM, 8 μM, 16 μM, 31 μM, 62 μM, 125 μM, and 250 μM).
Compound 25 and Compound 10, as well as their corresponding luciferins (i.e., D-Luciferin and CycLuc2, respectively), were tested in live CHO cells expressing wild-type (WT) luciferase or R218K (RK) luciferase at various concentrations (i.e., 0.125 μM, 0.25 μM, 0.5 μM, 1 μM, 2 μM, 4 μM, 8 μM, 16 μM, 31 μM, 62 μM, 125 μM, and 250 μM).

[4] = target: T2, FAAH (Homo sapiens, UniProt O00519); assay: In vitro FAAH assay: luciferin amide treated with recombinant FAAH, then R218K luciferase, bioluminescence; assay type: biochemical
T2 construct: purchased Cayman Chemical
T2 sequence (O00519 1-579): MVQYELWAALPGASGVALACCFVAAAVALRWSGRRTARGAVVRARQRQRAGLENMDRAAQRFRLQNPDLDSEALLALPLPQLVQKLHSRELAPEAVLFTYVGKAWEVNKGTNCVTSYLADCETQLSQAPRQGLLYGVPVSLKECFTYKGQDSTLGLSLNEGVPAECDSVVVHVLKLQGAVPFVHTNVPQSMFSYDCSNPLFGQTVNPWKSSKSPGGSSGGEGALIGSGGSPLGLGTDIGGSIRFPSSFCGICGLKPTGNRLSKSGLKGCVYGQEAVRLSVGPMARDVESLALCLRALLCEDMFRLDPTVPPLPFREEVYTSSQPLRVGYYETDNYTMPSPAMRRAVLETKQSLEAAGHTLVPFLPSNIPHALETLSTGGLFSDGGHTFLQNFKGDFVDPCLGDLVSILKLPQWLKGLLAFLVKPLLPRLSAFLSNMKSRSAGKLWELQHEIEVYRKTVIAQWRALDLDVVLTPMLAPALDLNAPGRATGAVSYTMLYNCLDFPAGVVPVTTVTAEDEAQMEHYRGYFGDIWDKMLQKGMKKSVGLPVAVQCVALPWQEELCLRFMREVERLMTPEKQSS
Method: Recombinant FAAH, FAAH assay buffer, and FAAH inhibitors URB-597, PF-750, and PF-3845 were purchased from Cayman Chemical.
Bioluminescence assays were performed in either a Turner Veritas luminometer or a Xenogen IVIS-100 imaging system. For Veritas experiments, white 96-well plates were used (Costar 3912). For IVIS experiments, black 96-well plates were used (Costar 3915).
Luciferin amides (50 μM) were treated with FAAH and FAAH buffer (Cayman Chemical) in the presence or absence of 50 μM FAAH inhibitor URB-597 or 50 μM luciferase inhibitor 2-(4′-methoxyphenyl)benzothiazole. After 10 minutes at room temperature, R218K mutant firefly luciferase was added at a concentration of 3 μg/mL and bioluminescence was detected on a Turner Veritas luminometer.
Four luciferin amides (50 μM), i.e., Compounds 1, 9, 10, and 25, were treated with a buffer alone, a buffer containing FAAH, a buffer containing FAAH+50 μM URB-597 (i.e., a FAAH inhibitor), or a buffer containing FAAH+50 μM luciferase inhibitor 2-(4′-methoxyphenyl)benzothiazole. After 10 minutes at room temperature, R218K luciferase was added at a concentration of 3 μg/mL and bioluminescence was detected on a Turner Veritas.
Three luciferin amides (50 μM), i.e., Compounds 2, 9, and 25, were treated with a buffer alone, a buffer containing FAAH, a buffer containing FAAH 1:10 (i.e., a ten-fold dilution of FAAH), a buffer containing pig liver esterase (PLE), or a buffer containing PLE 1:10 (i.e., a ten-fold dilution of PLE). After one hour at room temperature, R218K luciferase was added at a concentration of 3 μg/mL and bioluminescence was detected on a Turner Veritas.

O=C(O)[C@H]1CSC(c2nc3cc4c(cc3s2)NCC4)=N1 [CycLuc1, reference compound]
total photon flux ([1]; 5 mM in PBS (0.1 mL) IP, groups (1) PF-3845 and (2) vehicle, 10 minutes after substrate): 9×10^6 p/s
change of light output by FAAH inhibitor PF-3845 (group 1 vs group 2) ([1]; PF-3845 1 mg/mL (0.1 mL) IP 30 minutes before substrate): unchanged
persistence of signal relative to D-luciferin ([2]; 0.06 mL of 0.5 mM): persisted for a longer time
duration of signal ([2]; IP, 0.1 mL of 5 mM): over 2 hours
time of peak signal ([2]; IP, 0.1 mL of 5 mM): ~10 min
brain bioluminescence signal relative to D-luciferin (0.1 mL of 100 mM) ([2]; IP, 0.1 mL of 5 mM in PBS, 20-fold lower dose): an order of magnitude higher signal than D-luciferin

CN1CCc2cc3nc(C4=N[C@@H](C(=O)O)CS4)sc3cc21 [CycLuc2, reference compound]
effect of FAAH inhibitors URB-597, PF-750 and PF-3845 on light output [3]: no significant effect

Me2N-luciferin methyl ester [reference compound]
light emission in brains of live mice (qualitative) [2]: relatively weak light emission

NC(=O)c1cccc(-c2cccc(OC(=O)NC3CCCCC3)c2)c1 [URB-597, reference compound]
inhibition of the FAAH-dependent bioluminescence signals of Compounds 1, 9, 10, 25 by FAAH inhibitor ([4]; 50 μM URB-597, 50 μM luciferin amide): more than 100 fold

CNc1ccc2nc(C3=N[C@@H](C(N)=O)CS3)sc2c1 [Compound 1, (S)-4,5-dihydro-2-(6-(methylamino)benzo[d]-thiazol-2-yl)thiazole-4-carboxamide]
increase in bioluminescence signal on addition of FAAH versus buffer ([4]; 50 μM luciferin amide, 10 minutes at room temperature, R218K luciferase 3 μg/mL): 167 fold
light emission in brains of live mice (qualitative) [2]: relatively strong light emission

CCNc1ccc2nc(C3=N[C@@H](C(=O)NC)CS3)sc2c1 [Compound 7, (S)-2-(6-(ethylamino)benzo[d]thiazol-2-yl)-4,5-dihydro-N-methylthiazole-4-carboxamide]
light emission in brains of live mice (qualitative) [2]: relatively strong light emission

NC(=O)[C@H]1CSC(c2nc3cc4c(cc3s2)NCCC4)=N1 [Compound 14, (S)-2-(5,6,7,8-tetrahydrothiazolo[4,5-g]quinolin-2-yl)-4,5-dihydrothiazole-4-carboxamide]
Photon flux after treatment with luciferin analogs ([2]; 100 μM): 1.43E+07 p/s
improved signal over 100 mM D-luciferin ([2]; 0.1 mM): more than 10 fold

CCNc1ccc2nc(C3=N[C@@H](C(N)=O)CS3)sc2c1 [Compound 6, (S)-2-(6-(ethylamino)benzo[d]thiazol-2-yl)-4,5-dihydrothiazole-4-carboxamide]
light emission in brains of live mice (qualitative) [2]: relatively strong light emission

CC(C)CNc1ccc2nc(C3=N[C@@H](C(N)=O)CS3)sc2c1 [Compound 3, (S)-4,5-dihydro-2-(6-(isobutylamino)benzo[d]-thiazol-2-yl)thiazole-4-carboxamide]
light emission in brains of live mice (qualitative) [2]: relatively strong light emission

O=C(O)[C@H]1CSC(c2nc3ccc(O)cc3s2)=N1 [D-luciferin, reference compound]
Photon flux after treatment with luciferin analogs ([2]; 100 mM): 1.21E+06 p/s

NC(=O)[C@H]1CSC(c2nc3ccc(NCCCO)cc3s2)=N1 [Compound 4, (S)-2-(6-(3-hydroxypropylamino)benzo[d]-thiazol-2-yl)-4,5-dihydrothiazole-4-carboxamide]
light emission in brains of live mice (qualitative) [2]: relatively weak light emission
